Patent US20250263408A1 (Uniquest Pty Ltd, priority 2022, published 2025)

Columns and labels:
Syk = target: T1, Syk (Homo sapiens, UniProt P43405); assay: Syk Biochemical Assay (ADP-Glo luminescence); details: ATP 40 μM final, 60 minutes, read-out: SYK Biochem IC50
T1 construct: purchased Promega
Protocol: Compounds were serially diluted in 100% DMSO, prior to an intermediate dilution in water. In a low volume white 384-well Proxiplate (Perkin Elmer), 1 μL of compound (0.4% final DMSO) was added to 3 μL of 10 ng/well Syk (Promega) and 0.2 mg/mL Poly-E4Y1 substrate (Promega) in assay buffer (final 40 mM Tris-HCl pH 7.4, 20 mM MgCl2, 0.1 mg/mL BSA) for 5 minutes. The reaction was initiated by addition of 1 μL of ATP (40 μM final) and allowed to proceed for 60 minutes at room temperature. The reaction was terminated by addition of 5 μL of ADP-Glo Reagent Mix (Promega) containing 1 mM MgCl2 for 45 minutes at room temperature. 10 μL of Kinase Detection Reagent (Promega) was added and incubated for 10 minutes at room temperature, before luminescence was measured using an Ensight Multimode Plate Reader (Perkin Elmer).

[1] = tested on: Ba/F3-WT (wild type) cells; assay: Ba/F3 Proliferation Assay, Ba/F3-WT (wild type) cells with mIL-3 (Resazurin); format: cell-based; details: Ba/F3-WT cells +mIL-3, 48-hour incubation
Ba/F3-Syk cells = target: T2, Ba/F3-Syk cells (Homo sapiens, UniProt P43405); assay: Ba/F3 Proliferation Assay, Ba/F3-Syk cells (Resazurin); format: cell-based; details: 48-hour incubation
T2 construct: fused on or other part: Possible but unprinted fusion partner: TEL (ETV6), the usual partner for Ba/F3 lines transformed by Syk; Nothing on a partner is printed

Structure (SMILES) | IC50 (Syk) [nM] | EC50 ([1]; Mus musculus, BaF3, 48 h) [nM] | EC50 (Ba/F3-Syk cells) [nM] | EC50 [1] [nM]
CC(C)n1ccc(-c2cc(OC[C@@H]3CNCCO3)c3nccnc3c2)c1 [Compound 8.6, 5-{[(2S)-morpholin-2-yl]methoxy}-7-[1-(propan-2-yl)-1H-pyrrol-3-yl]quinoxaline] | 10.8 | 969 | 6.97 | –
CC1(C)CNC[C@@H](COc2nc(-c3ccn(C(C)(C)C)c3)cc3ncccc23)O1 [Compound 2.57, 7-(1-tert-butyl-1H-pyrrol-3-yl)-5-{[(2S)-6,6-dimethylmorpholin-2-yl]methoxy}-1,6-naphthyridine] | 10 | > 10000 | 21.6 | –
C[C@@H](Oc1nc(-c2cnn(C)c2)cc2ncccc12)[C@@H]1CNCCO1 [Compound 2.5, 7-(1-methyl-1H-pyrazol-4-yl)-5-[(1R)-1-[(2S)-morpholin-2-yl]ethoxy]-1,6-naphthyridine] | 38.9 | 2540 | 76.7 | –
c1cnc2cc(-c3ccn(C4COC4)c3)nc(OC[C@@H]3CNCCO3)c2c1 [Compound 6.11, 5-{[(2S)-morpholin-2-yl]methoxy}-7-[1-(oxetan-3-yl)-1H-pyrrol-3-yl]-1,6-naphthyridine] | 24.6 | 1680 | 30.7 | –
CC(C)(C)n1cc(-c2cc3ncccc3c(OC[C@@H]3CNC[C@@H](C4CC4)O3)n2)cn1 [Compound 2.103, 7-(1-tert-butyl-1H-pyrazol-4-yl)-5-{[(2S,6R)-6-cyclopropylmorpholin-2-yl]methoxy}-1,6-naphthyridine] | 30.5 | 985 | 32.7 | –
CC(C)(C)n1cc(-c2cc3ncccc3c(OC[C@@H]3CNCCO3)n2)cn1 [Compound 2.10, 7-(1-tert-butyl-1H-pyrazol-4-yl)-5-{[(2S)-morpholin-2-yl]methoxy}-1,6-naphthyridine] | 14.5 | 2780 | 39.9 | –
CC1(C)CNC[C@@H](COc2nc(-c3ccn(C4COC4)c3)cc3ncccc23)O1 [Compound 6.25, 5-{[(2S)-6,6-dimethylmorpholin-2-yl]methoxy}-7-[1-(oxetan-3-yl)-1H-pyrrol-3-yl]-1,6-naphthyridine] | 20.5 | 1760 | 8.6 | –
CC(C)n1cc(-c2cc(OC[C@@H]3CNCC4(CC4)O3)c3cccnc3c2)cn1 [Compound 3.21, 5-{[(SS)-4-oxa-7-azaspiro[2.5]octan-5-yl]methoxy}-7-[1-(propan-2-yl)-1H-pyrazol-4-yl]quinoline] | – | 614 | 13.1 | –
Cn1cc(-c2cc3ncccc3c(OC[C@H]3CN[C@@H]4CCC[C@@H]4O3)n2)cn1 [Compound 2.72, 5-{[(2R,4aR,7aS)-octahydrocyclopenta[b][1,4]oxazin-2-yl]methoxy}-7-(1-methyl-1H-pyrazol-4-yl)-1,6-naphthyridine] | – | 1900 | 266 | –
C[C@@H](Oc1nc(-c2ccn(C(C)(C)C)c2)cc2ncccc12)[C@@H]1CNCCO1 [Compound 2.68, 7-(1-tert-butyl-1H-pyrrol-3-yl)-5-[(1R)-1-[(2S)-morpholin-2-yl]ethoxy]-1,6-naphthyridine] | – | 4370 | 13.9 | –
CC(C)(C)n1cc(-c2cc3ncccc3c(O[C@H]3CC[C@@H]4NCCO[C@@H]43)n2)cn1 (relative stereo) [Compound 2.91, 5-[rel-(4aS,7S,7aS)-octahydrocyclopenta[b][1,4]oxazin-7-yloxy]-7-(1-tert-butyl-1H-pyrazol-4-yl)-1,6-naphthyridine] | – | 1040 | 51.8 | –
CC1(C)CNC[C@@H](COc2cc(-c3cnn(C4CCC4)c3)cc3ncccc23)O1 [Compound 3.13, 7-(1-cyclobutyl-1H-pyrazol-4-yl)-5-{[(2S)-6,6-dimethylmorpholin-2-yl]methoxy}quinoline] | – | 814 | 35.8 | –
CC1(C)CNC[C@@H](COc2nc(-c3cnn(C4(C)CC4)c3)cc3ncccc23)O1 [Compound 2.88, 5-{[(2S)-6,6-dimethylmorpholin-2-yl]methoxy}-7-[1-(1-methylcyclopropyl)-1H-pyrazol-4-yl]-1,6-naphthyridine] | – | 1560 | 17.6 | –
C[C@@H](Oc1nc(-c2ccn(C)c2)cc2ncccc12)[C@@H]1CNCC(C)(C)O1 [Compound 2.65, 5-[(1R)-1-[(2S)-6,6-dimethylmorpholin-2-yl]ethoxy]-7-(1-methyl-1H-pyrrol-3-yl)-1,6-naphthyridine] | – | 2540 | 11.7 | –
CC(C)n1ccc(-c2cc(O[C@H](C)[C@@H]3CNCC(C)(C)O3)c3nccnc3c2)c1 [Compound 8.11, 5-[(1R)-1-[(2S)-6,6-dimethylmorpholin-2-yl]ethoxy]-7-[1-(propan-2-yl)-1H-pyrrol-3-yl]quinoxaline] | – | 625 | 6.32 | –
c1cnc2cc(-c3cc[nH]c3)cc(OC[C@@H]3CNCCO3)c2c1 [Compound 3.9, 5-{[(2S)-morpholin-2-yl]methoxy}-7-(1H-pyrrol-3-yl)quinoline] | – | > 10000 | 167 | –
CC(C)(C)n1cc(-c2cc3ncccc3c(OC[C@H]3CN[C@@H]4CCC[C@@H]4O3)n2)cn1 (stereo in doubt) [Compound 2.95, 5-{[(2R,4aR,7aS)-octahydrocyclopenta[b][1,4]oxazin-2-yl]methoxy}-7-(1-tert-butyl-1H-pyrazol-4-yl)-1,6-naphthyridine] | – | 1850 | 22.1 | –

The next lines start with the values.

IC50 (Syk) [nM] | EC50 ([1]; Mus musculus, BaF3, 48 h) [nM] | EC50 (Ba/F3-Syk cells) [nM] | EC50 [1] [nM] | Structure (SMILES)
11.2 | 1270 | 16.2 | – | FC(F)Cn1ccc(-c2cc(OC[C@@H]3CNCCO3)c3nccnc3c2)c1 [Compound 8.8, 7-[1-(2,2-difluoroethyl)-1H-pyrrol-3-yl]-5-{[(2S)-morpholin-2-yl]methoxy}quinoxaline]
11.8 | 1620 | 10.7 | – | CC(C)n1ccc(-c2cc(OC[C@@H]3CNCCCO3)c3nccnc3c2)c1 [Compound 8.10, 5-{[(2S)-1,4-oxazepan-2-yl]methoxy}-7-[1-(propan-2-yl)-1H-pyrrol-3-yl]quinoxaline]
31.7 | 518 | 43 | – | C[C@@H]1NCCO[C@@H]1COc1nc(-c2cnn(C3(C)CC3)c2)cc2ncccc12 [Compound 13.16, 7-[1-(1-methylcyclopropyl)-1H-pyrazol-4-yl]-5-{[(2S,3S)-3-methylmorpholin-2-yl]methoxy}-1,6-naphthyridine]
17.6 | 1770 | 28.5 | – | CC1(C)CNC[C@@H](COc2cc(-c3ccn(CC(F)F)c3)cc3ncccc23)O1 [Compound 7.6, 7-[1-(2,2-difluoroethyl)-1H-pyrrol-3-yl]-5-{[(2S)-6,6-dimethylmorpholin-2-yl]methoxy}quinoline]
9.1 | 2180 | 32.1 | – | CC1(C)CNC[C@@H](COc2nc(-c3cnn(CC(F)F)c3)cc3ncccc23)O1 [Compound 6.20, 7-[1-(2,2-difluoroethyl)-1H-pyrazol-4-yl]-5-{[(2S)-6,6-dimethylmorpholin-2-yl]methoxy}-1,6-naphthyridine]
10.1 | 2110 | – | 2480 | FC(F)Cn1ccc(-c2cc(OC[C@@H]3CNCCO3)c3cccnc3c2)c1 [Compound 7.2, 7-[1-(2,2-difluoroethyl)-1H-pyrrol-3-yl]-5-{[(2S)-morpholin-2-yl]methoxy}quinoline]
18.2 | – | 131 | – | c1cnc2cc(-c3cnn(C4COC4)c3)nc(OC[C@@H]3CNCCO3)c2c1 [Compound 2.11, 5-{[(2S)-morpholin-2-yl]methoxy}-7-[1-(oxetan-3-yl)-1H-pyrazol-4-yl]-1,6-naphthyridine]
– | 803 | 6.1 | – | COCCn1ccc(-c2cc(OC[C@@H]3CNCC(C)(C)O3)c3c(C)ccnc3c2)c1 [Compound 14.11, 5-{[(2S)-6,6-dimethylmorpholin-2-yl]methoxy}-7-[1-(2-methoxyethyl)-1H-pyrrol-3-yl]-4-methylquinoline]
– | 6970 | 206 | – | Cc1ncc(-c2cc3ncccc3c(OC[C@@H]3CNCCO3)n2)s1 [Compound 2.30, 7-(2-methyl-1,3-thiazol-5-yl)-5-{[(2S)-morpholin-2-yl]methoxy}-1,6-naphthyridine]
– | 1680 | 87 | – | CC1(C)CNC[C@@H](COc2cc(-c3cnn(CC(F)F)c3)cc3ncccc23)O1 [Compound 3.12, 7-[1-(2,2-difluoroethyl)-1H-pyrazol-4-yl]-5-{[(2S)-6,6-dimethylmorpholin-2-yl]methoxy}quinoline]
– | 3270 | 19.3 | – | CC1(C)CNC[C@@H](COc2cc(-c3ccn(C4CC4(F)F)c3)cc3ncccc23)O1 (stereo partly drawn) [Compound 7.8, 7-[1-(2,2-difluorocyclopropyl)-1H-pyrrol-3-yl]-5-{[(2S)-6,6-dimethylmorpholin-2-yl]methoxy}quinoline]
– | 5750 | 214 | – | CC1(C)CCO[C@H](COc2nc(-c3cnn(C(C)(C)C)c3)cc3ncccc23)CN1 [Compound 13.4, 7-(1-tert-butyl-1H-pyrazol-4-yl)-5-{[(2S)-5,5-dimethyl-1,4-oxazepan-2-yl]methoxy}-1,6-naphthyridine]
– | 2440 | 234 | – | COCCn1ccc(-c2cc(OC[C@@H]3CNCCO3)c3cccnc3c2)c1 [Compound 7.9, 7-[1-(2-methoxyethyl)-1H-pyrrol-3-yl]-5-{[(2S)-morpholin-2-yl]methoxy}quinoline]
